Assay results as given in patent US8343912B2, “Antibiotic compositions for the treatment of gram negative infections” (priority 2008, dated 2013).
Marks after values point to notes of the source that are not given here. Numbered stars: 1 amine (or outer) side, 2 acyl side, 3 side chain; on linkers, the order of the positions; unused ones are H or OH. Bridge positions count the residues as written; N and C are the ends. Square brackets hold non-standard residues; d marks the D form. Peptide text beside a SMILES is read from it. * marks the point of attachment. Octanoyl(6-Me) = CCC(C)CCCCC(=O)*; NH(2-ClPh) = Clc1ccccc1N*; Dab = NCC[CH](N)C(=O)O; CO = O=C([*:1])[*:2]

Key:
A. baumannii #1570 = assay: Thigh infection in neutropenic mice; assay type: in vivo; conditions: for Log10 CFU/mL thigh homogenate ± SD: thighs at 24 h; for ED−3log10 (dose for 3 log10 reduction in bacterial count vs water): thigh infection, sc, Compound 5 value corrected for lot potency 711 μg/mg
Experimental: Infections were induced in neutropenic mice by […] the left thigh of each mouse. Compound 5, or a comparator drug, either polymyxin B, colistin or imipenem, were administered subcutaneously at 1 hour and 6 hours post-infection. Eighteen hours after the last treatment, mice were euthanized humanely; the infected thighs were removed, homogenized, serially diluted, and plated on agar. The bacterial burden was then quantitated by colony count. Compound 5, polymyxin B, colistin, and imipenem were evaluated for their ability to decrease the bacterial burden in the infected thighs compared with water-treated control mice.
All the test compounds were dissolved in sterile water for administration by subcutaneous (sc) injection. A series of dilutions of test compounds were prepared in sterile water.
Mice were made neutropenic by ip administration with 150 mg/kg cyclophosphamide on day-4, followed by a second ip dose of 100 mg/kg cyclophosphamide on day-1. A diluted exponential-phase growing culture of A. baumannii #1570 corresponding to 1×10^7 or 5×10^4 CFU respectively, in 0.2 mL of sterile saline, was injected into the left thigh of conscious mice on day 0. The actual concentration of bacteria in the inoculum was confirmed by determination of viable counts by dilution plating on tryptic soy agar plates. The number of CFU of bacteria was determined after an incubation of 16 hours at 37° C.
Groups of five mice were used for each dose of the test compounds and the vehicle. Each group received sc injections of test compounds or vehicle at 1 hour post-infection, and then at 6 hours post-infection for a total of 2 doses. In each study, there were three to five dose groups per test compound. Eighteen hours after the last injection, the mice were euthanized by asphyxiation with CO2. The left thighs were removed aseptically, homogenized in 4 mL of distilled water and dilution plated on tryptic soy agar plates to quantify bacterial CFU. The number of CFU of bacteria in thighs was determined after an incubation of 16 hours at 37° C. (the CFU per milliliter of homogenate).
The results were expressed as the geometric mean log10 CFU/mL±the standard deviation. The limit of detection was 10 CFU per mL of thigh homogenate. Thighs were considered sterile when no CFU were detected on the agar. The efficacy of the test compounds was assessed by comparing the number of log10 CFU/mL measured in the treated mice with control animals treated with vehicle (water). The efficacy of Compound 5 was also compared with the positive comparator antibiotics polymyxin B, colistin and imipenem-cilastatin.
Dose response curves of test compounds were generated for each isolate. Regression lines were generated using Microsoft Excel to calculate the dose administered twice daily (BID) predicted to produce a 3 log10 reduction in bacterial count as compared to the water-treated control group [ED−3 log 10 (mg/kg, sc, BID)].

[1] = Dissociation constant (pKa)
[2] = tested on: Rat kidney proximal tubule cells; assay: Cell culture cytotoxicity assay (ATP bioluminescence, LLC-PK1); assay type: cell-based; conditions: LLC-PK1, 24 hours, ATP readout
Experimental: Day 1: 1×10^5 to 2×10^5 cellswere inoculated (Cell line: LLC-PK1) per flask, containing 4 mL/T25 flask of medium DMEM-F12 (50/50) media supplemented with 10% FBS (Fetal Bovine Serum). The cells were then incubated at 37° C., 5% CO2, 80% RH.
Day 4: The cell cultures were examined to determine 80% confluency. To trypsinize of the 80% confluent flasks, 4 mL of DMEM-F12-10% FBS media was prepared per flask. The media was aspirated from the flask and 5 mL of Versene was added to rinse the flask. The Versene was aspirated and 2 mL of triple Express solution (trypsin solution) was added. The cells were incubated for 5 min at room temperature and examined via microscopy for the rounding of the cells and their detachment. To speed up the reaction, the flask can be incubated at 37° C. for 3 minutes. 4 mL of media (DMEM-F12-10%FBS) was added to stop the reaction. Using a 5 mL pipette, the completed reaction was pipetted up and down to ensure that the cells were properly detached from the flask and from each others. The cell number was counted using a hemocytometer slide. 100 μL of cell suspension was transferred to a tube and 100 μL of Trypan Blue was added. Inoculum for 96 well is 10,000 cells per well. For one 96 well plate, 26.3 μL×110 well=2893 μL total. 2.9 mL of cell suspension was mixed with 8.1 mL of media DMEM-F12-10% FBS and 100 μL was distributed to each well using a multichannel pipetter. The plate was then Incubated for 24 h at 37° C.
Day 5: DMEM-F12 (no FBS) medium was dispensed into tubes with the test article to achieve final concentrations of […]. The 96 well plate was taken off the incubator and media was removed from each well using multichannel pipetter. 80 μL of serially diluted compounds of Formula (I) was added to each well. Every set of concentration was done in triplicate. Media and positive controls were added to each plate and the plates were incubated for 24 hours at 37° C.
Day 6: The plates were taken from the incubator, the media was removed from each well, and 100 μL of fresh media DMEM-F12 (this is equivalent to a rinse and the media can be replaced with PBS) was added. The media is then removed and 80 μL of cell lysis solution is added. After 5 minutes, 80 μL of sterile filtered high quality water was added to each well. Using a white or black 96 well reaction plate, 80 μL of 25× diluted ATP mix reagent (Sigma Bioluminescent Somatic Cell Assay Kit [cat #FL-ASC]) was added into one column. 80 μL of diluted ATP standards (dilutions used: 250, 500, 1000, 2000 and 4000) was added and the plate was read immediately in the topcount with a 2 second read time. In another white or black 96 well reaction plate, 80 μL of 25× diluted ATP mix reagent (plate A) was added and 80 μL of lysis-water solution was transferred to each column of plate A. The plate was then read immediately in the topcount with a 2 second read time. This process was repeated for next consecutive plate and the EC50 for certain compounds of Formula I were calculated and provided in Table 4.

[3] = 2.0 mg/kg BID sc, 1 and 6 h post-infection, water control 7.75

Structure (SMILES) | Log10 CFU/mL thigh homogenate ± SD (A. baumannii #1570; [3]) | Log10 CFU/mL thigh homogenate ± SD (A. baumannii #1570; 4.0 mg/kg BID sc) | Log10 CFU/mL thigh homogenate ± SD (A. baumannii #1570; 8.0 mg/kg BID sc) | Log10 CFU/mL thigh homogenate ± SD (A. baumannii #1570; 12.0 mg/kg BID sc) | ED−3log10 (dose for 3 log10 reduction in bacterial count vs water) (A. baumannii #1570) | logP (Lipophilicity (Log P)) | pKa [1] | EC50 Rat kidney proximal tubule cells [2]
CCC(C)CCCCC(=O)NC(CCN)C(=O)NC(C(=O)NC(CCN)C(=O)NC1CCNC(=O)C(C(C)O)NC(=O)C(CCN)NC(=O)C(CCN)NC(=O)C(CC(C)C)NC(=O)C(Cc2ccccc2)NC(=O)C(CCN)NC1=O)C(C)O (stereo not shown) [Polymyxin B, polymyxin B, reference compound] ({Octanoyl(6-Me)}-[Dab]T[Dab][Dab][Dab]FL[Dab][Dab]T; lactam 4-C; configuration not given here) | 6.04 ± 1.10 Log10 CFU/mL | 4.94 ± 1.03 Log10 CFU/mL | 4.07 ± 0.41 Log10 CFU/mL | 4.19 ± 0.59 Log10 CFU/mL | 4.8 mg/kg, BID | – | – | –
CC(C)C[C@@H]1NC(=O)[C@@H](Cc2ccccc2)NC(=O)[C@H](CCN)NC(=O)[C@@H](NC(=O)[C@H](CCN)NC(=O)[C@@H](NC(=O)[C@H](CCN)NC(=O)Nc2ccccc2Cl)[C@@H](C)O)CCNC(=O)[C@H]([C@@H](C)O)NC(=O)[C@H](CCN)NC(=O)[C@H](CCN)NC1=O [Compound 5, (S)-4-amino-N-((2S,3R)-1-((S)-4-amino-1-oxo-1-((3S,6S,9S,12S,15R,18S,21S)-6,9,18-tris(2-aminoethyl)-15-benzyl-3-((R)-1-hydroxyethyl)-12-isobutyl-2,5,8,11,14,17,20-heptaoxo-1,4,7,10,13,16,19-heptaazacyclotricosan-21-ylamino)butan-2-ylamino)-3-hydroxy-1-oxobutan-2-yl)-2-(3-(2-chlorophenyl)ureido)butanamide] ({NH(2-ClPh)-CO}-[Dab]T[Dab][Dab][Dab][dF]L[Dab][Dab]T; lactam 4-C) | 6.93 ± 0.56 Log10 CFU/mL | 6.64 ± 0.55 Log10 CFU/mL | 5.06 ± 0.80 Log10 CFU/mL | 3.97 ± 0.34 Log10 CFU/mL | 6.4^b mg/kg, BID | < -1 | 8.17 | >1000 micrograms/ml
